The data set has as its system place preference. The experiment in a line: Place conditioning (conditioned place preference, shuttle box). Type of data set: in vivo, Male ICR mice. The note with it: 1 mg/kg, s.c.; mean ± S.E., n=8; time in drug-paired minus saline-paired place, 900-s session. The method, then:
Male ICR mice (6 weeks old; Tokyo Laboratory Animals Science Co., Ltd., Tokyo, Japan), weighing about 30 g, were used. They had free access to food and water in an animal room which was maintained at 22 ± 1°C with a 12-hour light-dark cycle. This study was carried out in accordance with the Declaration of Helsinki and/or with the guide for the care and use of laboratory animals as adopted by the committee on the care and use of laboratory animals of Hoshi University, which is accredited by the Ministry of Education, Science, Sports and Culture, Japan.
Place conditioning was conducted as previously using a minor modification of an unbaised procedure [J. Kamei et al., Eur. J. Pharmacol. 318 (1996) 251]. The apparatus used was a shuttle box (15 x 30 x 15 cm: w x 1 x h) which was divided into two compartments of equal size. […] The time spent in each compartment during a 900-s session was then measured in a blinded fashion by an infrared beam sensor (KN-80, Natume, Tokyo, Japan). […]
The potency ration was calculated according to a statistical program (Program 11 of the Pharmacological Calculations System) (8). Conditioning scores represent the time spent in the drug paired place minus the time spent in the saline-paired place, and are expressed as mean ± S.E. The Wilcoxon test was used to determine whether individual doses produced a significant conditioning (P<0.05).

Counter-ions that a name gives are not always drawn.

On to `NC1=NCC2c3ccccc3Cc3ccccc3N12` (stereo not shown) [epinastine, epinastine hydrochloride], for which the mean conditioning score came out at 20.3 ± 61.8 s.

The values are drawn from EP1000623A1, “Use of epinastine as antitussivum” (Boehringer Ingelheim International GmbH, priority 1998, dated 2000).
